Laboratory results reported in patent EP1343508B1, “USE OF AN OESTROGEN IN THE MANUFACTURE OF A COMPOSITION CONTAINING OESTROGEN FOR THE TREATMENT OF ATROPHIC VAGINITIS” (Novo Nordisk Femcare AG, priority 2000, dated 2002).
Where “and” joins values, the source holds several entries; their conditions need not be identical. Equal entries are not always repeated. Marks after values point to notes of the source that are not given here.

Legend:
[1] = tested on: superficial vaginal cells; assay: Vaginal cytology, percentage of superficial cells, Example 3; format: in vivo, postmenopausal women
Method: (§1) Efficacy was measured with composite scores of vaginal symptoms (dryness, soreness, and irritation) and vaginal health (secretions, epithelial integrity, surface thickness, and pH). Vaginal and urethral cytology analyses were also performed, and the vaginal maturation value was determined. Safety assessments included endometrial biopsies.
(§2) All vaginal tablets were identical in appearance. Patients inserted 1 tablet daily for 14 days. Thereafter, patients inserted 1 tablet twice per week (Sunday and Thursday) for the remainder of the trial. Patients were to insert the tablets at the same time each day (preferably at bedtime). Patients were evaluated for efficacy and safety at Week - 4 (screening), Week 0 (baseline), and Weeks 2, 7, and 12.
(§3) Vaginal and urethral cell samples were harvested and analyzed by independent cytologists to determine the percentages of parabasal, intermediate, and superficial cells. Maturation values were calculated according to the following equation: maturation value = 1.0 × [superficial cells, %] + 0.5 × [intermediate cells, %] [formula] Endometrial biopsies were performed at the end of the study in patients with intact uteri. The number of patients with abnormal biopsies was compared between treatment groups.

[2] = tested on: vaginal mucosa; assay: Vaginal maturation value, Example 3; format: in vivo, postmenopausal women
Method: as §1, §2, §3

[3] = tested on: superficial vaginal and urethral cells; assay: Superficial vaginal and urethral cells taken together, subjects per category, Example 3; format: in vivo, postmenopausal women; details: for percentage of subjects with both superficial vaginal and urethral cells less than or equal to 5% / subjects with percentages of both superficial vaginal and urethral cells less than or equal to 5%: Week 0; for percentage of subjects with increases in percentages of both superficial vaginal and urethral cells / subjects with increases in percentages of both superficial vaginal and urethral cells: Week 12
Method: as §1, §2, §3

[4] = tested on: postmenopausal women with atrophic vaginitis; assay: Vaginal health composite score (investigator rating), Example 3; format: in vivo; details: each treatment group (25 or 10 µg E2); Week 0 (baseline); scale 0-3
Method: Efficacy was measured with composite scores of vaginal symptoms (dryness, soreness, and irritation) and vaginal health (secretions, epithelial integrity, surface thickness, and pH). Vaginal and urethral cytology analyses were also performed, and the vaginal maturation value was determined. Safety assessments included endometrial biopsies. […] All vaginal tablets were identical in appearance. Patients inserted 1 tablet daily for 14 days. Thereafter, patients inserted 1 tablet twice per week (Sunday and Thursday) for the remainder of the trial. Patients were to insert the tablets at the same time each day (preferably at bedtime). Patients were evaluated for efficacy and safety at Week - 4 (screening), Week 0 (baseline), and Weeks 2, 7, and 12. […] Differences within and between treatment groups were analyzed using an analysis of variance (ANOVA). […] Efficacy was measured with composite scores of vaginal symptoms (dryness, soreness, and irritation) and vaginal health (secretions, epithelial integrity, surface thickness, and pH). Vaginal and urethral cytology analyses were also performed, and the vaginal maturation value was determined. […] Patients were evaluated for efficacy and safety at Week - 4 (screening), Week 0 (baseline), and Weeks 2, 7, and 12. […] Differences within and between treatment groups were analyzed using an analysis of variance (ANOVA).

[5] = tested on: vaginal mucosal cells; assay: Maturation value of vaginal mucosal cells, Example 2; format: in vivo, postmenopausal women
Method: Maturation values of vaginal mucosal cells were assessed as an indicator of changes in the condition of the vaginal mucosa in response to treatment.
After the screening visit, patients received no study treatment during the 4-week run-in period prior to the baseline visit. […] The vaginal tablets were identical in appearance. Patients inserted 1 tablet intravaginally, once daily for the initial 2 weeks of the study and then twice per week (Sunday and Thursday) for the remaining 10 weeks. Patients were instructed to use their medication at a consistent time each day, preferably in the morning.
Upon presentation to the clinic for each visit, a vaginal cytology specimen was obtained. Patients then inserted the tablets. […] The blood samples obtained at 30 minutes before insertion, and at 6, 12, and 24 hours after insertion were also used to determine the FSH concentration via immunoradiometric assay. […]

[6] = tested on: superficial urethral cells; assay: Urethral cytology, percentage of superficial cells, Example 3; format: in vivo, postmenopausal women
Method: as §1, §2, §3

[7] = tested on: endometrium; assay: Endometrial biopsy at end of study, Example 3; format: in vivo, postmenopausal women; details: Week 12, N = 32
Method: as §1, §3

With `C[C@]12CC[C@@H]3c4ccc(O)cc4CC[C@H]3[C@@H]1CC[C@@H]2O` [E2, 17β-estradiol] the “percentage of superficial vaginal cells, Mean” value ([1]; 10 µg E2, Week 0) was 3.1%, the “percentage of superficial vaginal cells, Mean” value ([1]; 10 µg E2, Week 2) was 28.3% and the “percentage of superficial vaginal cells, mean Change from baseline” value ([1]; 10 µg E2, Week 2) was 25.0^a %. The “percentage of superficial vaginal cells, mean Change from baseline” value ([1]; 10 µg E2, Week 7) was 17.1%, the “percentage of superficial vaginal cells, mean Change from baseline” value ([1]; 10 µg E2, Week 12) was 16.9^d % and the “percentage of superficial vaginal cells, Mean” value ([1]; 25 µg E2, Week 0) was 4.0%. The “percentage of superficial vaginal cells, Mean” value ([1]; 25 µg E2, Week 2) was 34.2%, the “percentage of superficial vaginal cells, mean Change from baseline” value ([1]; 25 µg E2, Week 2) was 30.7^a % and the “percentage of superficial vaginal cells, Mean” value ([1]; 25 µg E2, Week 7) was 28.2%. For the same compound, the “percentage of superficial vaginal cells, mean Change from baseline” value ([1]; 25 µg E2, Week 7) was 23.9^b,c %, the “percentage of superficial vaginal cells, mean Change from baseline” value ([1]; 25 µg E2, Week 12) was 15.4% and the maturation values ([2]; active treatment groups (25 or 10 µg E2), Week 12) was “approximately 60%”. The maturation values ([2]; each treatment group (25 or 10 µg E2), Week 0) was “approximately 45%”, the “percentage of subjects with both superficial vaginal and urethral cells less than or equal to 5%” value ([3]; 10 µg E2) was 85% and the “subjects with percentages of both superficial vaginal and urethral cells less than or equal to 5%” value ([3]; 10 µg E2) was 53 subjects. For the same compound, the “percentage of subjects with increases in percentages of both superficial vaginal and urethral cells” value ([3]; 10 µg E2) was 71%, the “subjects with increases in percentages of both superficial vaginal and urethral cells” value ([3]; 10 µg E2) was 44 subjects and the “percentage of subjects with both superficial vaginal and urethral cells less than or equal to 5%” value ([3]; 25 µg E2) was 81%. The “subjects with percentages of both superficial vaginal and urethral cells less than or equal to 5%” value ([3]; 25 µg E2) was 57 subjects, the “percentage of subjects with increases in percentages of both superficial vaginal and urethral cells” value ([3]; 25 µg E2) was 74% and the “subjects with increases in percentages of both superficial vaginal and urethral cells” value ([3]; 25 µg E2) was 52 subjects. The “vaginal health composite score” value [4] was “approximately 1.7”, the “maturation value, Mean ± SD” value ([5]; 10 µg E2, Week 0 (baseline)) was 51.0 and 51.0 ± 6.2 and the “maturation value, Mean change ± SD from baseline” value ([5]; 10 µg E2, Week 12) was 11.2 ± 17.8^b. The “maturation value, Mean ± SD” value ([5]; 10 µg E2, Week 12) was 62.2 ± 15.7, the “patients with increases in maturation values from baseline” value ([5]; 10 µg E2, Week 12) was 14 patients and the “percentage of patients with increases in maturation values from baseline” value ([5]; 10 µg E2, Week 12) was 64%. The “maturation value, Mean ± SD” value ([5]; 25 µg E2, Week 0 (baseline)) was 52.4 and 53.4 and 52.4 ± 7.1, the “maturation value, Mean change ± SD from baseline” value ([5]; 25 µg E2, Week 12) was 7.0 ± 8.7^b and the “maturation value, Mean ± SD” value ([5]; 25 µg E2, Week 12) was 58.4 ± 7.5. The “patients with increases in maturation values from baseline” value ([5]; 25 µg E2, Week 12) was 13 patients, the “percentage of patients with increases in maturation values from baseline” value ([5]; 25 µg E2, Week 12) was 68% and the “percentage of superficial urethral cells, Mean” value ([6]; 10 µg E2, Week 0) was 2.5%. For the same compound, the “percentage of superficial urethral cells, Mean” value ([6]; 10 µg E2, Week 2) was 16.7%, the “percentage of superficial urethral cells, mean Change from baseline” value ([6]; 10 µg E2, Week 2) was 14.1^c % and the “percentage of superficial urethral cells, Mean” value ([6]; 10 µg E2, Week 7) was 13.5%. The “percentage of superficial urethral cells, mean Change from baseline” value ([6]; 10 µg E2, Week 7) was 10.7%, the “percentage of superficial urethral cells, Mean” value ([6]; 10 µg E2, Week 12) was 9.5% and the “percentage of superficial urethral cells, mean Change from baseline” value ([6]; 10 µg E2, Week 12) was 6.8%. The “percentage of superficial urethral cells, Mean” value ([6]; 25 µg E2, Week 0) was 3.2%, the “percentage of superficial urethral cells, Mean” value ([6]; 25 µg E2, Week 2) was 21.9% and the “percentage of superficial urethral cells, mean Change from baseline” value ([6]; 25 µg E2, Week 2) was 19.2^a,b %. The “percentage of superficial urethral cells, Mean” value ([6]; 25 µg E2, Week 7) was 17.6%, the “percentage of superficial urethral cells, mean Change from baseline” value ([6]; 25 µg E2, Week 7) was 14.2^d % and the “percentage of superficial urethral cells, Mean” value ([6]; 25 µg E2, Week 12) was 11.2%. The “percentage of superficial urethral cells, mean Change from baseline” value ([6]; 25 µg E2, Week 12) was 7.5%, the “Endometrial Biopsy Result Abnormal, percentage of patients” value ([7]; 10 µg E2) was 0.0% and the “Endometrial Biopsy Result Normal, number of patients” value ([7]; 10 µg E2) was 25. The “Endometrial Biopsy Result Normal, percentage of patients” value ([7]; 10 µg E2) was 78.1%, the “Endometrial Biopsy Result Other, number of patients” value ([7]; 10 µg E2) was 7 and the “Endometrial Biopsy Result Other, percentage of patients” value ([7]; 10 µg E2) was 21.9%. The “Endometrial Biopsy Result Abnormal, number of patients” value ([7]; 10 µg E2, hyperplasia or carcinoma) was 0, the “Endometrial Biopsy Result Abnormal, percentage of patients” value ([7]; 25 µg E2) was 3.1% and the “Endometrial Biopsy Result Normal, number of patients” value ([7]; 25 µg E2) was 28. The “Endometrial Biopsy Result Normal, percentage of patients” value ([7]; 25 µg E2) was 87.5%, the “Endometrial Biopsy Result Other, number of patients” value ([7]; 25 µg E2) was 3 and the “Endometrial Biopsy Result Other, percentage of patients” value ([7]; 25 µg E2) was 9.4%.
